Source: PubChem BioAssay (NCI)
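Following 48 hours of exposure in 96-well plates, responses at five concentrations were used to interpolate endpoints linearly. Definition used: TGI = concentration required for complete inhibition of growth.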

Experiments:
Assay in all cases: DTP human tumour cell line panel, 48 h
[1] = tested on: RPMI-8226 leukemia
[2] = tested on: SF-268 CNS
[3] = tested on: IGROV1 ovarian
[4] = tested on: NCI-H226 lung
[5] = tested on: OVCAR-3 ovarian
[6] = tested on: T-47D breast
[7] = tested on: BT-549 breast
[8] = tested on: OVCAR-5 ovarian
[9] = tested on: ACHN renal
[10] = tested on: HT29 colon
[11] = tested on: SK-MEL-2 melanoma
[12] = tested on: LOX IMVI melanoma

Measured: TGI

CCOC(=O)c1c(NC(=O)c2ccccc2)sc2c1CCCC2
> 100 µM: all assays above
